US11369613B2, “Salts and solid form of a BTK inhibitor” (PRINCIPIA BIOPHARMA INC., priority 2014, dated 2022)
Blank lines part the entries; values can stand above or below the compound they belong to.

What was measured:
BTK = biological target: T1, BTK (Canis lupus familiaris, UniProt A0A8I3P3Z9); assay: BTK occupancy in blood in the dog pemphigus foliaceus study; format: in vivo; conditions: oral 500 mg daily, blood taken 24 hours after the first dose, read-out: level of BTK occupancy
T1 construct: from tissue; host or cells: blood of the treated dog
T1 sequence (A0A8I3P3Z9 1-664): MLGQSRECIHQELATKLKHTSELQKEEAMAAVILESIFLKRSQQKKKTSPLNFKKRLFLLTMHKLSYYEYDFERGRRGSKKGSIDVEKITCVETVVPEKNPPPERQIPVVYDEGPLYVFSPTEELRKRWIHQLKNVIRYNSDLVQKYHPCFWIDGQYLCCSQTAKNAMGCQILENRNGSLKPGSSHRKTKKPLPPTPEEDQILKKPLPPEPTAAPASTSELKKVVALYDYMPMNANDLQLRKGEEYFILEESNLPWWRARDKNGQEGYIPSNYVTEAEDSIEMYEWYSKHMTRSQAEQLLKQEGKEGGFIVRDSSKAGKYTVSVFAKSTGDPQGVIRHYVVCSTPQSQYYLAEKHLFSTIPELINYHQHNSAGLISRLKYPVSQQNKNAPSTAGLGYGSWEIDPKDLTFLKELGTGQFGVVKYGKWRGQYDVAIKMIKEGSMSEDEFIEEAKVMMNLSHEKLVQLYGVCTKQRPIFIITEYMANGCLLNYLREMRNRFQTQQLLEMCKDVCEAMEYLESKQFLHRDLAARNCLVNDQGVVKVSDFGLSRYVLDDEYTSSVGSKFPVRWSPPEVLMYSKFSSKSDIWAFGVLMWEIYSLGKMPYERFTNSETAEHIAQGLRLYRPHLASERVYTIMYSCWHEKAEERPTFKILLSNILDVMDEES

pemphigus foliaceus = assay: Dog pemphigus foliaceus study; format: in vivo
[1] = Stability of the free base on drying (thermal stability); format: physicochemical; conditions: drying under vacuum, at less than 45° C.
Description: Isolation of compound (I) as described in PCT Application No. PCT/US2013058614 is less than ideal for large scale synthesis and isolation and therefore handling and formulating of the resulting compound can present challenges. In addition, when isolated as described in PCT Application No. PCT/US2013058614, the isolated compound (I) retains a higher percentage of residual solvent after drying under vacuum at ambient temperature than that allowed under the International Conference on Harmonisation of Technical Requirements for Registration of Pharmaceuticals for Human Use (“ICH”) guidelines (e.g., -ICH limit for class 2 solvents ranges between 50-3880 ppm and for class 3 solvents <5000 ppm).
However, the solids obtained by this method contained high residual solvents (3.9 wt % isopropylacetate and 1.7 wt % heptane).

chronic SLE = conditions: cited from earlier work
pemphigus vulgaris = conditions: cited from earlier work
[2] = system: ANCA-associated vasculitis; conditions: cited from earlier work

receptor occupancy at 500 mg (BTK): ~70%
Compound: CC(C)(C)/C=C(\C#N)C(=O)N1CCC[C@@H](n2nc(-c3ccc(Oc4ccccc4)cc3F)c3c(N)ncnc32)C1 [(R,E)-2-(3-(4-amino-3-(2-fluoro-4-phenoxy-phenyl)-1H-pyrazolo[3,4-d]-pyrimidin-1-yl)piperidine-1-carbonyl)-4,4-dimethylpent-2-enenitrile]
Time to clinical response (improved eating and ambulation) (pemphigus foliaceus; 30 kg Doberman, oral 500 mg daily, monotherapy): within three days | Manifestation of pre-clinical response compared with systemic corticosteroid therapy (pemphigus foliaceus; dog with pemphigus foliaceus, single agent): as rapid and comparable to that observed with systemic corticosteroid therapy | Corticosteroid-like adverse effects (polyuria, polydipsia, polyphagia, weight gain) (pemphigus foliaceus; dog, oral 500 mg daily): No well-known corticosteroid-like adverse effects | Skin lesions by four weeks (pemphigus foliaceus; dog, oral 500 mg daily, four weeks): completely healed | Clinical status at one week follow up visit (pemphigus foliaceus; dog, oral 500 mg daily, one week): improved general health and commencement of pemphigus lesion healing | Clinical status after two weeks of treatment (pemphigus foliaceus; dog, oral 500 mg daily, two weeks): general health of the dog was excellent and skin lesions continued to improve | Corticosteroid-like adverse effects (polyuria, polydipsia, polyphagia, weight gain) (pemphigus foliaceus; dog, oral 500 mg daily, listed as (R,E)-2-(3-(4-amino-3-(2-fluoro-4-phenoxyphenyl)-1H-pyrazolo [3,4-d]-pyrimidin-1))): none of the well-known corticosteroid-like adverse effects

Stability of free base (degradation products during drying) [1]: thermal instability | Stability of free base (degradation products during drying) ([1]; listed as free base form): not very stable
Compound: CC(C)(C=C(C#N)C(=O)N1CCC[C@@H](n2nc(-c3ccc(Oc4ccccc4)cc3F)c3c(N)ncnc32)C1)N1CCN(C2COC2)CC1 [Compound (I), 2-[(3R)-3-[4-amino-3-(2-fluoro-4-phenoxy-phenyl)pyrazolo[3,4-d]pyrimidin-1-yl]piperidine-1-carbonyl]-4-methyl-4-[4-(oxetan-3-yl)piperazin-1-yl]pent-2-enenitrile]

Compound: Belimumab: an anti-Blys antibody
Effect on improvement of chronic SLE (chronic SLE): modest and delayed effect on improvement | Patients able to reduce corticosteroid use to <7.5 mg of prednisone (chronic SLE; week 40-52): ≤ 21% of patients (Benlysta US Product

Compound: Rituximab: anti-CD20 agent
Onset of effect (pemphigus vulgaris): Rituximab has delayed effect in pemphigus | Time of maximal effect (pemphigus vulgaris): vulgaris with maximal effect at 8-12 weeks | Onset of effect [2]: Rituximab has delayed effect in ANCA-
